# Reference: ChEMBL document CHEMBL1201862, “PubChem BioAssay data set” (2004)
# Activity calls are given as the source filed them.
# What was measured:
# [1] = molecular target: Melanocortin receptor 4 (Homo sapiens, UniProt P32245); assay: MC4R antagonist potency on cAMP, dose response, cell-based, TR-FRET, biased antagonists (AID 602298); assay type: functional;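 note: antagonist potency against agonist-stimulated cAMP production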
# [2] = nonselective inhibitors of cellular cAMP signaling, dose response, counter-screen for MC4R biased antagonist project, cell-based, TR-FRET cAMP detection (AID 602305); assay type: functional;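 note: U2OS cells stimulated with forskolin near its EC80 as the cAMP inducer; potency is for inhibition of forskolin-stimulated cAMP signaling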
# [3] = THP-1 cell cytotoxicity, cytotoxicity control, set 6 (AID 602433); assay type: functional; details: Mycobacterium tuberculosis
# [4] = Luminescence Cell-Based Dose Response to Identify Activators of 5'UTR Stem-Loop Driven Prion Protein mRNA Translation in H4-C Neuroglioblastoma Cells. [Related pubchem assays: 1829 (Project Summary), 1814 (Primary HTS)]; assay type: functional
# [5] = Luminescence Cell-Based Dose Response HTS to Identify Activators of Luciferase Translation or Activity in H4 […] Cells. [Related pubchem assays: 1829 (Project Summary), 1814 (Primary HTS)]; assay type: functional
# [6] = test system: H4; assay: Luminescence Cell-Based Dose Response HTS to Identify Activators of 5'UTR Stem-Loop Driven Prion Protein mRNA Translation in H4 Neuroglioblastoma Cells. [Related pubchem assays: 1829 (Project Summary), 1814 (Primary HTS)]; assay type: functional; details: Homo sapiens
# [7] = Luminescence Cell-Based Dose Response to Identify Activators of Luciferase Translation or Activity in H4-C Neuroglioblastoma Cells. [Related pubchem assays: 1829 (Project Summary), 1814 (Primary HTS)]; assay type: functional
# [8] = Luminescence Cell-Based Dose Confirmation to Identify Activators of 5'UTR Stem-Loop Driven Alpha-Synuclein mRNA Translation in H4 Neuroglioblastoma Cells. [Related pubchem assays: 1829 (Project Summary), 1814 (Primary HTS)]; assay type: functional
# [9] = test system: CHO-K1; assay: (§1) Counterscreen for antagonists of the orexin 1 receptor (OX1R; HCRTR1): Homogeneous time resolved fluorescence (HTRF)-based cell-based dose response assay to identify antagonists of the parental CHO-K1 cell line. [Related pubchem assays (depositor defined):AID434989, AID435008, AID463079, AID485270, AID492963, AID492964, AID492965, AID493232, AID504699, AID504701]; assay type: functional; details: Cricetulus griseus
# [10] = as §1, with “Fluorescence-based” for “Homogeneous time resolved fluorescence (HTRF)-based”, “cell-based high throughput” for “cell-based”, “CHO” for “CHO-K1”; assay type: functional
# [11] = molecular target: T1, Orexin/Hypocretin receptor type 1 (Homo sapiens, UniProt O43613); assay: Homogeneous Time Resolved Fluorescence (HTRF)-based cell-based high throughput dose response assay for antagonists of the orexin 1 receptor (OX1R; HCRTR1). [Related pubchem assays (depositor defined):AID434989, AID435008, AID463079, AID485270, AID492963, AID492964, AID492965, AID493232, AID504717, AID504718]; assay type: functional
# T1 sequence (O43613 whole entry): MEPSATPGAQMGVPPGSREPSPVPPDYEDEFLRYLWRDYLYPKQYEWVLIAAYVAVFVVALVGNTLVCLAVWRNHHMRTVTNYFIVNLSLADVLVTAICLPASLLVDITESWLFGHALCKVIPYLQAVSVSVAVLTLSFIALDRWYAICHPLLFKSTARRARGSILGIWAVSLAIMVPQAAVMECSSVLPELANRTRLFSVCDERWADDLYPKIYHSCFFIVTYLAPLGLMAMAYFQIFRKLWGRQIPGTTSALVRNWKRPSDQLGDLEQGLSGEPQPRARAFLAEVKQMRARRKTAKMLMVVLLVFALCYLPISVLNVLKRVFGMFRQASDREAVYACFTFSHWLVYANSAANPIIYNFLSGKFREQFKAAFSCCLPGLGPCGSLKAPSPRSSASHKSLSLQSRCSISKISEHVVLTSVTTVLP
# [12] = molecular target: T1, Orexin/Hypocretin receptor type 1; assay: Fluorescence-based cell-based high throughput dose response assay for antagonists of the orexin 1 receptor (OX1R; HCRTR1). [Related pubchem assays (depositor defined):AID434989, AID435008, AID463079, AID485270, AID492963, AID492964, AID492965, AID493232, AID504717, AID504718]; assay type: functional
# [13] = molecular target: T2, Orexin receptor type 2 (Homo sapiens, UniProt O43614); assay: Counterscreen assay for antagonists of the orexin 1 receptor (OX1R; HCRTR1): Fluorescence-based cell-based dose response assay for antagonists of the orexin 2 receptor (OX2R; HCRTR2), run by assay provider.; assay type: functional
# [14] = molecular target: T2, Orexin receptor type 2; assay: Counterscreen assay for antagonists of the orexin 1 receptor (OX1R; HCRTR1): Homogeneous Time Resolved Fluorescence (HTRF)-based cell-based dose response assay for antagonists of the orexin 2 receptor (OX2R; HCRTR2), run by assay provider.; assay type: functional
# [15] = molecular target: Aurora kinase A (Homo sapiens, UniProt O14965); assay type: functional;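 note: value from the Navigating the Kinome kinase panel profiling, panel entry STK6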
# [16] = molecular target: Vascular endothelial growth factor receptor 2 (Homo sapiens, UniProt P35968); assay type: functional
# [17] = molecular target: Aurora kinase B (Homo sapiens, UniProt Q96GD4); assay type: functional
# [18] = molecular target: Cyclin-dependent kinase 19 (Homo sapiens, UniProt Q9BWU1); assay: Navigating the Kinome. Panel member name: CDC2L6; assay type: functional
# [19] = molecular target: Protein kinase C delta type (Homo sapiens, UniProt Q05655); assay type: functional
# [20] = molecular target: Calcium/calmodulin-dependent protein kinase type II subunit gamma (Homo sapiens, UniProt Q13555); assay type: functional
# [21] = molecular target: Calcium/calmodulin-dependent protein kinase type II subunit delta (Homo sapiens, UniProt Q13557); assay type: functional
# [22] = molecular target: Receptor-type tyrosine-protein kinase FLT3 (Homo sapiens, UniProt P36888); assay type: functional;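 note: FLT3 was tested as one member of a kinome-wide kinase panel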
# [23] = molecular target: Calcium/calmodulin-dependent protein kinase type II subunit beta (Homo sapiens, UniProt Q13554); assay type: functional
# [24] = molecular target: T3, Insulin-degrading enzyme (Homo sapiens, UniProt P14735); assay: activators of recombinant IDE enzyme, dose response, counter-screen for IDE activator project, biochemical, fluorescence polarization (AID 588681)
# T3 sequence (P14735 whole entry): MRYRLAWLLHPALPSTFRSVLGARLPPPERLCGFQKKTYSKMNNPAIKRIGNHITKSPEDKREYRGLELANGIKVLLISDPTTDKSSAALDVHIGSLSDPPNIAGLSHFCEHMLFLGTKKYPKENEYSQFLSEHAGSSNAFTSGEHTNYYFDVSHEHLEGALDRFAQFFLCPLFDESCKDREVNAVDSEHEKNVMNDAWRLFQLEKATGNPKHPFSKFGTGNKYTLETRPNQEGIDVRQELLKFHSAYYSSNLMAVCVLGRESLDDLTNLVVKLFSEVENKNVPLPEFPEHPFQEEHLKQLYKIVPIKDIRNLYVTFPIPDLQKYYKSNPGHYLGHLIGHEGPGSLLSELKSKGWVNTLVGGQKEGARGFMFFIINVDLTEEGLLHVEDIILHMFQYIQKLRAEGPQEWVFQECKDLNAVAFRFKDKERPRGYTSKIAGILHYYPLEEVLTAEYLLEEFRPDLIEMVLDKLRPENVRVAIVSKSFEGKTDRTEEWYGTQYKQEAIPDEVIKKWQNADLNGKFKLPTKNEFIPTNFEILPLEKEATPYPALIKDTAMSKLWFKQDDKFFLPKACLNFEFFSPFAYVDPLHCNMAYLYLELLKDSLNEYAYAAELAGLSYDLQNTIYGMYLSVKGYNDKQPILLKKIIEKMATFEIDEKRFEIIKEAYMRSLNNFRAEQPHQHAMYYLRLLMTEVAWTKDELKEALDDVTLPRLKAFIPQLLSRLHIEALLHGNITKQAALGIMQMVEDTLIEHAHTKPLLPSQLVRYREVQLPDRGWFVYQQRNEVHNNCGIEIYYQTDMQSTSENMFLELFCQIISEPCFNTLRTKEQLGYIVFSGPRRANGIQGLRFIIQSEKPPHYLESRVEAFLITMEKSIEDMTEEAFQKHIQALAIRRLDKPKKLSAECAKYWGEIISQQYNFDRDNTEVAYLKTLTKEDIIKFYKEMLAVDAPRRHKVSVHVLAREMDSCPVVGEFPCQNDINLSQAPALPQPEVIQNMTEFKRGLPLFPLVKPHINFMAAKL
# [25] = molecular target: T3, Insulin-degrading enzyme; assay: activators of endogenous IDE in HEK cells, dose response, cell-based, fluorescence polarization (AID 588439); assay type: functional
# [26] = test system: HEK293; assay: HEK cell cytotoxicity by LDH release, dose response, cytotoxicity control for IDE activator project, fluorescence, HEK cells (AID 588440); assay type: functional, cell-based; details: Homo sapiens;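 note: cytotoxicity by LDH release measuring loss of membrane integrity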
# [27] = test system: HEK293; assay: optical interference in Abeta FP readout, dose response, artefact control for IDE activator project, biochemical, fluorescence polarization (AID 588442); assay type: functional, cell-based; details: Homo sapiens
# [28] = molecular target: Sphingosine 1-phosphate receptor 2 (Homo sapiens, UniProt O95136); assay: Late-stage fluorescence-based dose-response cell-based counterscreen assay to identify agonists of the Sphingosine 1-Phosphate Receptor 3 (S1P3): Sphingosine 1-Phosphate Receptor 2 (S1P2) agonist assay.; assay type: functional
# [29] = molecular target: T4, Sphingosine 1-phosphate receptor 4 (Homo sapiens, UniProt O95977); assay: Late-stage fluorescence-based dose-response cell-based counterscreen assay to identify agonists of the Sphingosine 1-Phosphate Receptor 3 (S1P3): Sphingosine 1-Phosphate Receptor 4 (S1P4) agonist assay.; assay type: functional
# T4 sequence (O95977 whole entry): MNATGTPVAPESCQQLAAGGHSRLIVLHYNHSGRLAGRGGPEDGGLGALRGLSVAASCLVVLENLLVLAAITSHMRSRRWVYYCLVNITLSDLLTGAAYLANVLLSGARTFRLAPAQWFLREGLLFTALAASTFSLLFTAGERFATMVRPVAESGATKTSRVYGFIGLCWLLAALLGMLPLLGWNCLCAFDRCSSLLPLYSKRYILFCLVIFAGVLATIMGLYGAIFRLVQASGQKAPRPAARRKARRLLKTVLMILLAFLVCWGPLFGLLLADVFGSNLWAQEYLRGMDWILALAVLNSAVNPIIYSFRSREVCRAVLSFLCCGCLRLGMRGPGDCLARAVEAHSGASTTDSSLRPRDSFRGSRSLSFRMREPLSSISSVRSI
# [30] = molecular target: Dual specificity protein kinase CLK2 (Homo sapiens, UniProt P49760); assay type: functional
# [31] = molecular target: Serine/threonine-protein kinase 17A (Homo sapiens, UniProt Q9UEE5); assay type: functional
# [32] = molecular target: Mitogen-activated protein kinase kinase kinase kinase 2 (Homo sapiens, UniProt Q12851); assay type: functional;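 note: measured as one member of a kinome-wide kinase panel, with MAP4K2 as the panel entry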
# [33] = molecular target: Misshapen-like kinase 1 (Homo sapiens, UniProt Q8N4C8); assay type: functional;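 note: kinome panel screen with MINK as the panel member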
# [34] = molecular target: Serine/threonine-protein kinase pim-1 (Homo sapiens, UniProt P11309); assay type: functional
# [35] = molecular target: Cell division cycle 7-related protein kinase (Homo sapiens, UniProt O00311); assay type: functional;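 note: value obtained from a kinome-wide kinase panel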
# [36] = molecular target: Homeodomain-interacting protein kinase 2 (Homo sapiens, UniProt Q9H2X6); assay type: functional;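 note: measured within a kinome-wide kinase profiling panel, HIPK2 being one panel member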
# [37] = molecular target: Interleukin-1 receptor-associated kinase 4 (Homo sapiens, UniProt Q9NWZ3); assay type: functional
# [38] = molecular target: Cyclin-dependent kinase 7 (Homo sapiens, UniProt P50613); assay type: functional;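 note: value comes from a kinome-wide kinase profiling panel in which CDK7 is one member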
# [39] = molecular target: Glycogen synthase kinase-3 beta (Homo sapiens, UniProt P49841); assay type: functional;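 note: value comes from a broad kinome profiling panel, with GSK3B as the panel member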
# [40] = molecular target: Cyclin-dependent kinase 9 (Homo sapiens, UniProt P50750); assay type: functional;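 note: value from the CDK9 entry of a kinome-spanning kinase panel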
# [41] = molecular target: cAMP-dependent protein kinase catalytic subunit alpha (Homo sapiens, UniProt P17612); assay type: functional
# T2 sequence (O43614 whole entry): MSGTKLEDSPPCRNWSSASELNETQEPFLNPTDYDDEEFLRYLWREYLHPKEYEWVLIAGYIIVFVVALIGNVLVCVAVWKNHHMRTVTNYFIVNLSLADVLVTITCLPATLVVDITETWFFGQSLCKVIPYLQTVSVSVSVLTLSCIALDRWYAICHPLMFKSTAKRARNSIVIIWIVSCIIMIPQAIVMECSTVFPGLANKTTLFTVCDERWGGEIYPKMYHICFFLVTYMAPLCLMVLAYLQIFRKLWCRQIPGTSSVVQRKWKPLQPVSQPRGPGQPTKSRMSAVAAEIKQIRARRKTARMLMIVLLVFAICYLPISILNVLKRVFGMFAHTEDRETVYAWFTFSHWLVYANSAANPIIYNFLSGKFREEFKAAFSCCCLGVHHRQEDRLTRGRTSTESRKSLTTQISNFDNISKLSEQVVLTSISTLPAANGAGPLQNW
# Chain of Cyclin-dependent kinase 9 (P50750 whole entry): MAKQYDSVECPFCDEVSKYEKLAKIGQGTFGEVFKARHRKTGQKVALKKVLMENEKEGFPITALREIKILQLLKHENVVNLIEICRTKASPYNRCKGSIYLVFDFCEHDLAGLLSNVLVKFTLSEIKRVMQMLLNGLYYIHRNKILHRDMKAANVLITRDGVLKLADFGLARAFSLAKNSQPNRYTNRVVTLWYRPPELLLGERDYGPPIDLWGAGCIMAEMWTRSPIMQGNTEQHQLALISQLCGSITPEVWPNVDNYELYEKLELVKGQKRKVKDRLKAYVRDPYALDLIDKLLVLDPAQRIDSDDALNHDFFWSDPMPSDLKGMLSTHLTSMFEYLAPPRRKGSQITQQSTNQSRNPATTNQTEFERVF
# Chain of Calcium/calmodulin-dependent protein kinase type II subunit gamma (Q13555 whole entry): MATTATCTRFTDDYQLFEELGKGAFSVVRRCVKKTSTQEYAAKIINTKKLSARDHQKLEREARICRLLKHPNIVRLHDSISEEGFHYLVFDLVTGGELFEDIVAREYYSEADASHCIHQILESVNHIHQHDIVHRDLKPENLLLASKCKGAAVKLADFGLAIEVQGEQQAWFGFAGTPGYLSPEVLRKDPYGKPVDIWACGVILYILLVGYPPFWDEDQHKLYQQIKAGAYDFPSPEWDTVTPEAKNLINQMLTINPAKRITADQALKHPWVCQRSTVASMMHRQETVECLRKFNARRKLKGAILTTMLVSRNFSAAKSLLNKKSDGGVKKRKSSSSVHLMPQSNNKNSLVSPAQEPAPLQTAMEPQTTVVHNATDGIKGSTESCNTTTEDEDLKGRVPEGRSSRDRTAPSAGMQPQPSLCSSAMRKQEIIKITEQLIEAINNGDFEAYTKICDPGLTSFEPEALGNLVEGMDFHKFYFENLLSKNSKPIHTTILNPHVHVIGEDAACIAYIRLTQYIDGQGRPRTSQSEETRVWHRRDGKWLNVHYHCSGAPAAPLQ
# Chain of Vascular endothelial growth factor receptor 2 (P35968 whole entry): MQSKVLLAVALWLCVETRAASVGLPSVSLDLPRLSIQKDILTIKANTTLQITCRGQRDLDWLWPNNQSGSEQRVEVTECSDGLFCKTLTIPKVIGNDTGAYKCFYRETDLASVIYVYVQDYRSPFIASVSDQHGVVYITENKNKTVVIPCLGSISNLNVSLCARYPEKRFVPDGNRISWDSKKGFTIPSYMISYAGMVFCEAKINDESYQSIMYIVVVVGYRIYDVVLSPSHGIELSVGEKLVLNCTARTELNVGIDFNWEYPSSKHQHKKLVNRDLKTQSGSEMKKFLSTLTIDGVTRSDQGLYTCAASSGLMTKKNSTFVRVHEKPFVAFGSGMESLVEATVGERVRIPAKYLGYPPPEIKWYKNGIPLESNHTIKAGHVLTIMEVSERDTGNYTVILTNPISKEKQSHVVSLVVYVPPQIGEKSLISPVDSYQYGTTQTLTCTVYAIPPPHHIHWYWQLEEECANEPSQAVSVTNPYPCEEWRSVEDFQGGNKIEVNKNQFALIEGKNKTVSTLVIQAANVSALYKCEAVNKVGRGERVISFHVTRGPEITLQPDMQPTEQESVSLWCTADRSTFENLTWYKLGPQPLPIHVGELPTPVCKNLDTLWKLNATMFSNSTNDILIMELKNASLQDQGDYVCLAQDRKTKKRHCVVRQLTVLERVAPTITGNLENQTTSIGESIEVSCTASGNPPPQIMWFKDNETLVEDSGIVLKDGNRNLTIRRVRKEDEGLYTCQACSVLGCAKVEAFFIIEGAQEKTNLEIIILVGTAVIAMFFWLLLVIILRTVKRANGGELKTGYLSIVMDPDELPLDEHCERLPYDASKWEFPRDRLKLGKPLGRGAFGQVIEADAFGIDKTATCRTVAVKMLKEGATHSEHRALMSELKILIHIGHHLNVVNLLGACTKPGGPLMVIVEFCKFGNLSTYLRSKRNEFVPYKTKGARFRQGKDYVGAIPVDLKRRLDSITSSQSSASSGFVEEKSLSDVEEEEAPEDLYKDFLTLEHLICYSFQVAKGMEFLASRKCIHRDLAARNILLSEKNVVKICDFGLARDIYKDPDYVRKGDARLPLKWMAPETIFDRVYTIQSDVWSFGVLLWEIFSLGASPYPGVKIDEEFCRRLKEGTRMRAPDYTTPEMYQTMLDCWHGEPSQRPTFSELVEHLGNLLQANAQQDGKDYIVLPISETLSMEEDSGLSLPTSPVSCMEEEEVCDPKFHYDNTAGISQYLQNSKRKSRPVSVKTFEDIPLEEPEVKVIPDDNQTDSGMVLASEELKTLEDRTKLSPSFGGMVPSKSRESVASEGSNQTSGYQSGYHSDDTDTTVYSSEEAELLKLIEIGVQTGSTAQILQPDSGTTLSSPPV
# Chain of Protein kinase C delta type (Q05655 whole entry): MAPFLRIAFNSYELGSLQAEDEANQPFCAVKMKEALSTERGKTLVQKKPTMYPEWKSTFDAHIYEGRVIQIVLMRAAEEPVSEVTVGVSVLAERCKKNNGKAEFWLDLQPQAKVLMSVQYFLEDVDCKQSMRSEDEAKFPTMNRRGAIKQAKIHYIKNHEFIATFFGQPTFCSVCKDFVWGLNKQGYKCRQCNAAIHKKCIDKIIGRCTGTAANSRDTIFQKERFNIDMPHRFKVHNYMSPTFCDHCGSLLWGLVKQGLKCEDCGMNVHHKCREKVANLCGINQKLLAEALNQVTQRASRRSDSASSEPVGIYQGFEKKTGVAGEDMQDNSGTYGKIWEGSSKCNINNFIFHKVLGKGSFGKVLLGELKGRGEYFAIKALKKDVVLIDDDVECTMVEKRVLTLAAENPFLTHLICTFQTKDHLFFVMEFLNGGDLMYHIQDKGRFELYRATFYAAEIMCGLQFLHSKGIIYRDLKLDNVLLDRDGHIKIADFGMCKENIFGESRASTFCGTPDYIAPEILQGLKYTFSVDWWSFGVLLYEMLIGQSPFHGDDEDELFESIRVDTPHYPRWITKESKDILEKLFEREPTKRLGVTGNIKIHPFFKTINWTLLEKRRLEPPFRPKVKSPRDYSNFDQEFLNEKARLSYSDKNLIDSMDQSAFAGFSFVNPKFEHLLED
# Chain of Serine/threonine-protein kinase pim-1 (P11309 whole entry): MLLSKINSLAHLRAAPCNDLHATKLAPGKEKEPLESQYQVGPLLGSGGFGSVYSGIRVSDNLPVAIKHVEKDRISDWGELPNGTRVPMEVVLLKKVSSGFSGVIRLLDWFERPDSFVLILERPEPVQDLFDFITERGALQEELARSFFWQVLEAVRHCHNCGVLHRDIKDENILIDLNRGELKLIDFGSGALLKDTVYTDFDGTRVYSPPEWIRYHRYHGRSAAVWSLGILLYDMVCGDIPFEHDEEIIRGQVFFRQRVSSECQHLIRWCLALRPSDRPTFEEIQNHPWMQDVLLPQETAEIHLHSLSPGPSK
# Chain of Serine/threonine-protein kinase 17A (Q9UEE5 whole entry): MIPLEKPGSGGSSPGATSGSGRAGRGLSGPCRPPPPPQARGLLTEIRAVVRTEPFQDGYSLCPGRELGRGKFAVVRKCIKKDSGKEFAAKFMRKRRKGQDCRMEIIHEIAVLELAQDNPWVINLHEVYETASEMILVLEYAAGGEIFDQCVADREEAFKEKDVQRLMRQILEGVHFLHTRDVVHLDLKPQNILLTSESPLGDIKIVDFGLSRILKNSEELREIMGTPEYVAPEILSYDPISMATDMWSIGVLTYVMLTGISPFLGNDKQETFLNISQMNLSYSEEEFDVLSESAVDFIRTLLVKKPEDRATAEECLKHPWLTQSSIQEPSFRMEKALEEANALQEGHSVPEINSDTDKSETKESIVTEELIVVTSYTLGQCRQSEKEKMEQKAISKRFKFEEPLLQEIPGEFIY
# Chain of Dual specificity protein kinase CLK2 (P49760 whole entry): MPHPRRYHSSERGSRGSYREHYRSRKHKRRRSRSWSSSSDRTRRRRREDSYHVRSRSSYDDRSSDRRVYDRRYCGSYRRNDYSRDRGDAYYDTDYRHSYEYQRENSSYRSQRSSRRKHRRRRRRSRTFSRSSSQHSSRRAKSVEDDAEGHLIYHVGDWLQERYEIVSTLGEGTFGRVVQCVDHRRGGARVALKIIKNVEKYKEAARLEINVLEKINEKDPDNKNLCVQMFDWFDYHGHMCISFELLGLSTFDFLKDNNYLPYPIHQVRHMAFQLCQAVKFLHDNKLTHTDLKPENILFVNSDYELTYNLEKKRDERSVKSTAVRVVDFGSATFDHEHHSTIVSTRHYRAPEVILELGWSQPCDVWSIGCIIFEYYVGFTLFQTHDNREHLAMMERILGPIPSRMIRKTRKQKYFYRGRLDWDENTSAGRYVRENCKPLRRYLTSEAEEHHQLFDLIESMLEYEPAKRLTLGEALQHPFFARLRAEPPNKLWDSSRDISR
# Chain of Cyclin-dependent kinase 7 (P50613 whole entry): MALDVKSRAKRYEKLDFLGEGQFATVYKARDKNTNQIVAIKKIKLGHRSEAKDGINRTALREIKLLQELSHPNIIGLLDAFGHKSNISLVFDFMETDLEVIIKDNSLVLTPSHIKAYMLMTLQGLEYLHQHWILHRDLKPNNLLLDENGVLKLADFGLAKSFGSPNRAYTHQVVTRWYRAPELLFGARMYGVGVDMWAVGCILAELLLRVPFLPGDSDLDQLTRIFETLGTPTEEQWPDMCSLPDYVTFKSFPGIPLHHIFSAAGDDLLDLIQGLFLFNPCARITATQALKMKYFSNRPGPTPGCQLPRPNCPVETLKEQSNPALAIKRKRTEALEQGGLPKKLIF
structure (smiles),measurement,setting,value
CCN(CC)C(=O)C(C)N(C#N)c1nc(Cl)nc(N(C)C)n1 (stereo unspecified),IC50,[1],> 64.6 µM (inactive)
same,IC50,[2],> 64.6 µM (inactive)
O=C(c1ccc(CNc2c(N3CCOCC3)c(=O)c2=O)cc1)N1CCC(c2ccccc2)CC1,CC50,[3],> 100 µM (active)
O=C(Nc1ccc2sc3ccccc3c(=O)c2c1)c1ccccc1Cl,EC50,[4],0.3 µM (active)
same,EC50,[5],0.297 µM (active)
same,EC50,[6],0.199 µM (active)
same,EC50,[7],0.454 µM (active)
same,EC50,[8],0.232 µM (active)
same,IC50,[9],> 66.2 µM (inactive)
same,IC50,[10],> 49.8 µM (inactive)
same,IC50,[11],3.26 µM (active)
same,IC50,[12],> 5.53 µM (active)
same,IC50,[13],> 88.8 µM (inactive)
same,IC50,[14],1.54 µM (active)
O=C(Nc1cccc(-c2nn3ccccc3c2-c2ccnc(Nc3ccc4c(c3)CNCC4)n2)c1)c1c(F)cccc1F,Ki,[15],0.2 µM (active)
same,Ki,[16],0.0126 µM (active)
same,Ki,[17],0.00501 µM (active)
same,Ki,[18],0.02 µM (active)
CCNc1nc(C)c(C=CC(C)(C)c2ccc(C(F)(F)F)cc2)c(NCC)n1,Ki,[19],7.94 µM (active)
same,Ki,[20],1.58 µM (active)
same,Ki,[21],2 µM (active)
same,Ki,[22],1.26 µM (active)
same,Ki,[23],2 µM (active)
COc1ccc(CCNC(=O)COC(=O)C2CC2C)cc1OC (stereo unspecified),EC50,[24],> 54.7 µM (inactive)
same,EC50,[25],> 54.7 µM (inactive)
same,IC50,[26],> 89.2 µM (inactive)
same,EC50,[27],> 55.9 µM (inactive)
O=C(c1cc(C2CC2)on1)N(C1CCCCC1)C1CCOCC1,EC50,[28],> 50 µM (inactive)
same,EC50,[29],> 50 µM (inactive)
Cc1n[nH]c2c1C(c1ccccc1F)C(C#N)=C(N)O2 (stereo unspecified),Ki,[30],7.94 µM (active)
same,Ki,[31],2.51 µM (active)
same,Ki,[32],5.01 µM (active)
same,Ki,[33],5.01 µM (active)
CC(C)(CO)CCCNc1cc(-c2c[nH]c3ncccc23)cc(Cl)n1,Ki,[34],0.398 µM (active)
same,Ki,[35],0.000631 µM (active)
same,Ki,[36],0.00794 µM (active)
same,Ki,[37],1.58 µM (active)
same,Ki,[38],0.0794 µM (active)
same,Ki,[39],0.0316 µM (active)
same,Ki,[40],0.158 µM (active)
same,Ki,[41],0.0316 µM (active)
